{
  "source": "paper PMC12037037",
  "about": "(Proceedings of the National Academy of Sciences of the …, 2025)",
  "key": {"[1]": {"target": "T1, 5-HT2A receptors (Gi1, Gi3 activation) (Homo sapiens, UniProt P28223)", "T1 construct": "expressed in transfected cells; host or cells: HEK293T (transient)", "T1 sequence (P28223 whole entry)": "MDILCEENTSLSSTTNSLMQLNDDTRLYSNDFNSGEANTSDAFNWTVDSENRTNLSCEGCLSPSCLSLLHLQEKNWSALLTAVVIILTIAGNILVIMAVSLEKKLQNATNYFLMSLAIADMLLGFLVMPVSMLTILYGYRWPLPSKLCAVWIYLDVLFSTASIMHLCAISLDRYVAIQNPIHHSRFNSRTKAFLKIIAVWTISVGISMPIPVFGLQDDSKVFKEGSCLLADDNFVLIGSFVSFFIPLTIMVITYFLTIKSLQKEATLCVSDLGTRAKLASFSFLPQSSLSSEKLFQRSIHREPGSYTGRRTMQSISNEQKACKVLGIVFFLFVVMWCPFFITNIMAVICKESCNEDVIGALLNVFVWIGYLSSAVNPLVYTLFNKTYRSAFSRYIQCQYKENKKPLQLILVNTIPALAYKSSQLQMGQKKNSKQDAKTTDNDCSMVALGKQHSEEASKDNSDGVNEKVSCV", "assay": "BRET-based assays of Gi1 and Gi3 activation", "type": "cell-based"}, "[2]": {"target": "T2, U2OS cells expressing 5-HT2ARs (β-arrestin recruitment) (Homo sapiens, UniProt P28223)", "T2 construct": "host or cells: U2OS", "T2 sequence (P28223 whole entry)": "as above", "assay": "PathHunter β-arrestin agonist assay", "type": "cell-based", "conditions": "free base"}, "[3]": {"tested_on": "male C57BL/6J mice", "assay": "PCP-induced locomotion (Psychogenics)", "type": "in vivo", "procedure": "IP) can block AMPH-induced hyperlocomotion in female, but not male, mice. (B) Pretreatment with (+)-JRT (1 mg/kg, IP) […]\nAMPH = (+)-amphetamine; PCP = phencyclidine; VEH = vehicle; ns = not significant. *p < 0.05, **p < 0.01, ***p < 0.001, ****p < 0.0001, as compared to the comparator(s) indicated by a horizontal bar. See Methods and SI Appendix, Table S1 for full details on statistics.\n(1 picture or pasted object on this page, not shown here) […]\nPCP-Induced Locomotion. The PCP-induced hyperlocomotion assay was performed by Psychogenics using male C57BL/6J mice that were approximately 8 weeks old at the time of the experiments. The experiment was performed during the animal’s light cycle phase. On the day of testing, animals were acclimated to the experimental room for at least 1 h prior to treatment. Animals were then administered with VEH or JRT (IP, 10 mL/kg) and placed in holding cages for 30 min, after which mice were placed in the open field chambers (27.3 x 27.3 x 30.3; Med Associates Inc., St Albans, VT). Baseline activity was recorded for 30 min. Next, mice received either PCP (5 mg/kg, IP, 10 ml/kg) or VEH and were returned to the open field chambers for a 60 min test session. Locomotion was assessed using consecutive infrared beam breaks. At the end of each session, the chambers were thoroughly cleaned. […]\nReads were aligned to the GRCm39 genome assembly using STAR, processed with Picard, and counted with the Subread software. Transcript inclusion criteria consisted of a minimum raw expression level of 25 transcripts in a minimum of 4 samples. Surrogate variable analysis was conducted with the sva package 2023 release v3.5.0 in R and normalization and differential expression analysis was performed with DESeq2 v4.3 with a baseMean threshold of 10. Heatmaps were created with the pheatmap v1.0.12 with sample-wise z-scores plotted and both row and column grouping allowed using pearson's distances and ward.D for clustering. Gene-wise selection criteria for heatmaps were a baseMean expression threshold of 50 to focus on robustly expressed genes, p value < 0.05, and presence in the top 250 genes sorted by absolute value of log2FC. Additionally, z score was capped at 2 for visualization purposes. Schizophrenia gene sets were extracted from a recent TWAS study (30).\nFor Figure S8G, the TWAS set was filtered for FDR < 0.01. Permutation testing was conducted to quantify the overlap of top genes from schizophrenia TWAS with the perm_test function from the bulkWarehouse package 2023 release v1.2.7.\nBriefly, the intersection of top differentially expressed genes and top TWAS genes is compared to an empirical distribution created by calculating the intersection with our top DEGs when randomly sampling candidate genes from our dataset equal to the size of the TWAS sample. […]"}, "[4]": {"tested_on": "Thy1-EGFP mice, layer 2/3 of the mPFC", "assay": "In vivo spinogenesis after chronic corticosterone administration", "conditions": "24 h, mean ± SEM"}, "[5]": {"tested_on": "C57BL/6J mice", "assay": "Novelty-induced locomotion", "type": "in vivo", "conditions": "1 mg/kg"}, "[6]": {"target": "T3, human recombinant 5-HT2AR (Homo sapiens, UniProt P28223)", "T3 construct": "host or cells: CHO-K1", "T3 sequence (P28223 whole entry)": "as above", "assay": "IP1 functional assay (5-HT2AR)", "type": "cell-based", "conditions": "5-HT2A, functional assay relevant to G protein activation (IP1), agonist mode"}, "[7]": {"target": "wild type human 5-HT2A receptor (psychLight2, PSYLI2 cells) (Homo sapiens, UniProt P28223)", "sequence (P28223 with tags, fused parts or gaps)": "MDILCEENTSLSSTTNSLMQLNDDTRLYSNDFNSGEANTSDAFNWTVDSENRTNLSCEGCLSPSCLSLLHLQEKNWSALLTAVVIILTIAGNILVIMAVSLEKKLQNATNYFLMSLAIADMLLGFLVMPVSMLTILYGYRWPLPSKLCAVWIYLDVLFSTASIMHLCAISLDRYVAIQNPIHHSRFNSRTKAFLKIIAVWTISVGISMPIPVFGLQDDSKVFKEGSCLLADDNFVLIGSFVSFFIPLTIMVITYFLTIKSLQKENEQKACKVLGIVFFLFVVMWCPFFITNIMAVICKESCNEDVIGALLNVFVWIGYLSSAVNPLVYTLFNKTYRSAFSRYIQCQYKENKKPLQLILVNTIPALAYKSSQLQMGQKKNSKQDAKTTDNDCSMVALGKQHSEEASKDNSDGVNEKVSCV", "sequence (P42212 with tags, fused parts or gaps partner)": "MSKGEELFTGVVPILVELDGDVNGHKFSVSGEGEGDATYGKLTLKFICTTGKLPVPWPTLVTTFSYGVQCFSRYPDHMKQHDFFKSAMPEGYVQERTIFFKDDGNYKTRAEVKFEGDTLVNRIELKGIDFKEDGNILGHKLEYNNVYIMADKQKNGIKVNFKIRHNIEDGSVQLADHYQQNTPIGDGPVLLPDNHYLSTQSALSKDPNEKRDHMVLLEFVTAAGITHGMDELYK", "assay": "PsychLight assay, wild type", "type": "cell-based"}, "[8]": {"tested_on": "male C57BL/6J mice", "assay": "Head-twitch antagonism of an LSD dose response (Transpharmation)", "type": "in vivo", "conditions": "+JRT PreTx (1 mg/kg IP, 30 min prior) then VEH (1% DMSO); -JRT 0.7 ± 0.3"}, "[9]": {"target": "T4, 5-HT2A receptors (Gq activation) (Homo sapiens, UniProt P28223)", "T4 construct": "expressed in transfected cells; host or cells: HEK293T (transient)", "T4 sequence (P28223 whole entry)": "as the sequence (P28223 whole entry) above", "assay": "BRET-based assay of Gq activation", "type": "cell-based"}, "[10]": {"target": "5-HT5A (Homo sapiens, UniProt P47898)", "sequence (P47898 whole entry)": "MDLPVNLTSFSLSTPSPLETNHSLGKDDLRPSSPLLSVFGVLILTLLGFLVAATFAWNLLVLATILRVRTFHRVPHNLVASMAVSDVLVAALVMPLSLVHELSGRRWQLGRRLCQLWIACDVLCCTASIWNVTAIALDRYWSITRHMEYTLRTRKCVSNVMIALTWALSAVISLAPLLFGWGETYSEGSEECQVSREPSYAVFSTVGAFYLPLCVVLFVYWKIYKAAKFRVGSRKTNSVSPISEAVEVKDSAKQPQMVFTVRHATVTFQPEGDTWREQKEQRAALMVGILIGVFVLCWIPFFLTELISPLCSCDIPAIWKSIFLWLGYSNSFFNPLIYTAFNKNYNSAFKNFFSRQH", "assay": "Functional assay at 5-HT5A (Fig. S4)", "type": "cell-based", "from_the_text": "Figure S4. […] Radioligand binding (RLB) (top) and IP1 functional assays (bottom) for 5-HT1A (A), 5-HT5a (B), 5-HT6 (C), and 5-HT7 (D) receptors. Agonist or antagonist mode is indicated in the title of each graph. Data represent the mean ± SEM of 2 technical replicates.\n5-carboxamidotryptamine; ND = not determined for incomplete curves.\n(1 picture or pasted object on this page, not shown here)"}},
  "note": "“Also recorded” adds a separate entry of the source.",
  "data": [
    {"smiles": "CCN(CC)C(=O)[C@@H]1C=C2c3cccc4ccn(c34)C[C@H]2N(C)C1", "note": "[(+)-JRT]", "values": [
      {"measurement": "Gi activation following stimulation of 5-HT2A receptors", "setting": "[1]", "value": "does not activate"},
      {"measurement": "β-arrestin recruitment through 5-HT2A receptor activation", "setting": "[2]", "value": "potent partial agonist; also recorded: not able to recruit β-arrestin through 5-HT2A receptor activation with high efficacy"},
      {"measurement": "Locomotion, infrared beam breaks (Figure 11B)", "setting": "[3]; (+)-JRT (0.1) + PCP 5 mg/kg IP", "value": "30482 ± 2310"},
      {"measurement": "Locomotion, infrared beam breaks (Figure 11B)", "setting": "[3]; (+)-JRT (0.3) + PCP 5 mg/kg IP", "value": "26618 ± 2425"},
      {"measurement": "Locomotion, infrared beam breaks (Figure 11B)", "setting": "[3]; (+)-JRT (1) + PCP 5 mg/kg IP", "value": "27253 ± 2401"},
      {"measurement": "Dendritic spine density, layer 2/3 mPFC (Table S1, matches Fig. 4N)", "setting": "[4]; GH (gentle handling) + JRT 1 mg/kg IP, GH VEH 12.17 ± 0.5278", "value": "11.36 ± 0.8451"},
      {"measurement": "Dendritic spine density, layer 2/3 mPFC (Table S1, matches Fig. 4N)", "setting": "[4]; chronic CORT 20 d + JRT 1 mg/kg IP", "value": "10.77 ± 0.5664"},
      {"measurement": "Effect on locomotion", "setting": "[5]; novel arena 30 min", "value": "does not impact locomotion"},
      {"measurement": "Serotonin syndrome-like responses", "setting": "[5]; backward walking, forepaw treading, hind limb abduction, low body posture, Straub tail, tremor", "value": "does not impact locomotion (SI Appendix, Fig. S10) or produce any serotonin syndrome-like responses"},
      {"measurement": "Emax", "setting": "[6]", "value": 81, "unit": "%"},
      {"measurement": "EC50", "setting": "[7]", "value": 90, "unit": "nM"},
      {"measurement": "Emax", "setting": "[7]; read-out: psychLight (WT): EMax", "value": 33, "unit": "%"},
      {"measurement": "Head-twitch response over 20 min (Figure S9)", "setting": "[8]", "value": "3.9 ± 0.567"},
      {"measurement": "EC50", "setting": "[9]; Gq Activation: EC50, agonist mode", "value": 0.4, "unit": "nM"},
      {"measurement": "EC50", "setting": "[9]; Gq Activation: EC50, antagonist mode, cotreated with 10 μM serotonin (5-HT + compound)", "value": 931, "unit": "nM"},
      {"measurement": "Emax", "setting": "[9]; read-out: Gq Activation: EMax", "value": 33, "unit": "%"},
      {"measurement": "Functional activity at 5-HT5A", "setting": "[10]", "value": "antagonist"}
    ]}
  ]
}
